Data set [1] concerns HBV. As to conditions: β-L-FTC, Schinazi et al. 1994, cited from earlier work.
In the next data set the test system is 2.2.15 cells. As to conditions: β-L-FTC; Schinazi et al. Antimicrob. Agent Chem (1994) 38, 2172; cited from earlier work.
For data set [2] the following is noted: background art; cited from earlier work.
Data set [3] in a line: Cytotoxicity in 2.2.15 cells (uptake of neutral red dye). In kind it is cell-based. As to conditions: human, nine daily additions. As to the method: (§1) The antiviral activities and cytotoxicity of a macromolecular prodrug of Dextran-araA made according to the teachings in Example 40 and the parent nucleoside analog araA were evaluated using […] (obtained from transfection of the Hep G2 human hepatoblastoma cell line with HBV) as described by Korba and Gerin (Korba B E, Gerin J L., Antiviral Research 1992; 19:55-70.) It is standard system widely used to compare the safety and efficacy of drugs for the treatment of HBV. The data for β-L-FTC,a nucleoside analog with pharmacological properties similar to Lamivudine (3TC), in the same system are shown for comparison. Lamivudine is a recently developed nucleoside analog that has been approved by the U.S. FDA for the treatment of HIV and has shown promise in extensive clinical trials against HBV
Briefly, the test compounds were added to confluent cultures of 2.2.15 cells every 24 hours for nine consecutive days in fresh culture media (RPMI 1640 with 2% fetal bovine serum, Gibco Inc., Grand Island N.Y. U.S.A.). The amount of extracellular HBV virion DNA and intracellular HBV replication intermediates were determined using quantitative blot hybridization analyses (dot, Southern and northern blots, respectively, Korba B E, Gerin J L., Antiviral Research 1992; 19:55-70; Korba B E, Milman., Antiviral Research 1991; 15:217-228). […]

In data set [4] the test system is HBV. Briefly: Antiviral activity on HBV replication in 2.2.15 cells (blot hybridization of virion DNA and replicative intermediates). The class given is cell-based. As to conditions: for EC90: Hepatitis B virus, 90% inhibition of viral replication. The protocol:
A common method of evaluating the success of antiviral and anticancer agents is by measuring the efficacy and toxicity in tissue culture systems. The antiviral activity of the macromolecular prodrug made according to the teachings in Example 40 was evaluated in […], a common assay for evaluating efficacy and toxicity of agent for Hepatitis B, as described in detail in Example 42.
as §1
Briefly, the test compounds were added to confluent cultures of 2.2.15 cells every 24 hours for nine consecutive days in fresh culture media (RPMI 1640 with 2% fetal bovine serum, Gibco Inc., Grand Island N.Y. U.S.A.). The amount of extracellular HBV virion DNA and intracellular HBV replication intermediates were determined using quantitative blot hybridization analyses (dot, Southern and northern blots, respectively, Korba B E, Gerin J L., Antiviral Research 1992; 19:55-70; Korba B E, Milman., Antiviral Research 1991; 15:217-228).
Efficacy was determined by the concentrations of agent giving 90% inhibition of viral replication (EC90) as measured in changes of HBV virion DNA and replicative intermediates. Cytotoxicity caused by the agents was measured by the uptake of neutral red dye. The cytotoxic concentration (CC50), was considered to be the concentration at which 50% of the cells took up due the dye. The selectivity index (SI, CC50 /EC90) is measure of drug toxicity in relation to drug efficacy.

Where [5] appears, read: Intracellular RI DNA (values in parentheses).

Read-outs that look alike come from different tables or passages of the source.

Regarding `Nc1nc(=O)n([C@@H]2CS[C@H](CO)O2)cc1F` [β-L-FTC], the concentration for an effect of 90% (EC90) (usually the point of the concentration-response curve where the effect stands at 90%) was 1.1 µM in the data set with HBV [1] (Extracellular DNA) and 0.39 µM with HBV [1] (Intracellular RI DNA). The “SI (CC50/EC90)” value in the data set on HBV [1] (Extracellular DNA) is recorded as 678; in the data set with HBV [1] (Intracellular RI DNA) it was 1913. For the same molecule, the half-maximal cytotoxic concentration (CC50) (in general, the concentration giving 50% cytotoxicity) in the data set with 2.2.15 cells was 746 µM.
`O=c1[nH]cnc2c1ncn2[C@@H]1O[C@H](CO)[C@@H](O)[C@@H]1O` [arahypoxanthine]: the antiviral effect entry in data set [2] is “little antiviral effect”.
In data set [3], `Nc1ncnc2c1ncn2[C@@H]1O[C@H](CO)[C@@H](O)[C@@H]1O` [araA] had a CC50 of 188 ± 20 µM. Further, the “SI (CC50/EC90)” value with HBV [4] (Extracellular DNA) stood at 11; with HBV [4] (setting [5]), 7.5. The EC90 with HBV [4] (Extracellular DNA (HBV virion)) came out at 17 ± 1.9 µM; in the data set on HBV [4] (setting [5]) it was 25 ± 2.1 µM. Also, in the data set on HBV [4] (text statement on the SI of Table 3), the “SI (rounded)” value is “about 10”.

The values above are taken from patent US5981507A, “Polymeric carriers linked to nucleotide analogues via a phosphoramide bond” (Advanced Magnetics, Inc., priority 1996, dated 1999).
